Reference: patent US10869846B2, “N-acetylcysteine amide (NAC amide) in the treatment of diseases and conditions associated with oxidative stress” (SENTIENT LIFESCIENCES, INC., priority 2005, dated 2020)

Legend:
PC12 cells [1] = test: MDA measurement in glutamate-exposed cells; assay type: cell-based; details: 24 h
Protocol: MDA measurement: To prepare the solution, 350 μl of straight cell homogenate, 100 μl of 500 ppm BHT (butylated hydroxytoluene), and 550 μl of 10% TCA (trichloroacetic acid) were combined and boiled for 30 min. The tubes were cooled on ice and centrifuged for 10 min at 2500 rpm. Five hundred (500) μl of the supernatant were removed and 500 μl of TBA (thiobarbituric acid) were added. The tubes were boiled again for 30 min, and then cooled on ice. From this solution, 500 μl were removed, added to 1.0 ml of n-butanol, vortexed, and centrifuged for 5 min at 60 g to facilitate a phase separation. The top layer was then filtered through 0.45 μm filters and injected onto a 5 μm C18 column (250×4.6 mm) on a reverse phase HPLC system. The mobile phase consisted of 69.4% 5 mM sodium phosphate buffer (pH=7.0), 30% acetonitrile, and 0.6% THF (tetrahydrofuran). The excitation wavelength was 515 nm; the emission wavelength was 550 nm (Draper H. H. et al., Free Radic Biol Med., 15(4):353-63, 1993).
(§1) Cells were plated and grown for 24 hours, and then they were exposed to glutamate (10 mM) in the presence or absence of NAC amide (750 μM). Twenty-four hours later, the cells were harvested and malondialdehyde levels were measured. Values represent means.+−.SD. Statistically different values of *P<0.002 and **P<0.05 were determined, compared to control. ***P<0.05 compared to glutamate-treated group.

PC12 cells [2] = test: LDH assay, glutamate cytotoxicity; assay type: cell-based; details: 10 mM glutamate + 750 μM NAC amide, 24 hours; glutamate alone = 100%
Protocol: LDH assay: For the lactate dehydrogenase (LDH) assay, cells were plated at a density of 2.5×10^5 cells/well in a 24 well collagen-coated culture plate and, after 24 h; the medium was replaced with fresh DMEM medium containing the desired concentration of glutamate and NAC amide. After the desired incubation period, the LDH activity released was determined using the kit as described below. For the MTS assay, cells were plated at a density of 10^5 cells/well in a 24 well collagen-coated plate. At the end of the experiments, cell viability was assayed using the kit as described. The LDH activity assay was performed with the CytoTox96® Non-Radioactive Cytotoxicity Assay kit (Promega, Madison, Wis., USA), which quantitatively measured the activity of LDH, a stable cytosolic enzyme that is released upon cell lysis [Technical Bulletin No. 163, Promega]. […] Absorbance data were collected using a BMG microplate reader (BMG Labtechnologies, Inc., Durham, N.C., USA) at 490 nm. LDH leakage was expressed as the percentage (%) of the maximum LDH release in the cells treated with glutamate alone (100%), according to the formula: […]
To quantify the protection provided by NAC amide, PC12 cells were exposed to 10 mM glutamate in the presence of NAC amide for 24 hours, and then the amount of LDH released was measured using the LDH assay.

mice = test: GSH and cysteine levels after administration to mice; assay type: in vivo; details: 30 minutes after administration
PC12 cells [3] = test: Cysteine levels in cells; assay type: cell-based; details: NAC amide 750 μM, glutamate 10 mM, 24 h (FIG. 5)
Protocol: as §1, with “cysteine” for “malondialdehyde”, “means±SD.” for “means.+−.SD.”, “*P<0.005” for “*P<0.002”
GSH measurement: Cellular levels of GSH were determined by using the method as described in Winters R. A. et al., Anal Biochem., 227(1):14-21, 1995. Cells were seeded at a density of 80,000 cells/cm^2 on poly-D-lysine coated (0.05 mg/ml) 75 cm^2 flasks (5 ml/flask) for GSH measurement. After 24 hours, the flasks were incubated with fresh medium containing glutamate (10 mM), or BSO (0.2 mM) or Glu+BSO+NAC amide (750 μM) at […] for another 24 h. After the incubation period, cells were removed from the cultures and homogenized in serine borate buffer (100 mM Tris-HCl, 10 mM boric acid, 5 mM L-serine, 1 mM DETAPAC, pH 7.4). Twenty (20) μl of the diluted cell homogenate were added to 230 μl of serine borate buffer and 750 μl of NPM (1 mM in acetonitrile). The resulting solutions were incubated at room temperature for 5 min. The reaction was stopped by the addition of 5 μl of 2N HCl. The samples were then filtered through a 0.2 μm Acrodisc filter and injected onto the HPLC system.

N-acetylcysteine amide [NAC amide] was tested, and the “MDA Levels” value (PC12 cells [1]; GLU (10 mM) + NAC amide (750 μM)) was 88 ± 11 nM/100 mg protein, the “MDA Levels” value (PC12 cells [1]; NAC amide (750 μM) alone) was 81 ± 22 nM/100 mg protein and the “% LDH released” value (PC12 cells [2]) was 28.9%. The “GSH and cysteine levels” value (mice) was “Increases” and the “cysteine levels compared to the control group” value (PC12 cells [3]) was “increase”.
